The source of these data is PMC6410202, “Dual Action of the PN159/KLAL/MAP Peptide: Increase of Drug Penetration across Caco-2 Intestinal Barrier Model by Modulation of Tight Junctions and Plasma Membrane Permeability” (Pharmaceutics, 2019).

For series [1], the system named is Pseudomonas aeruginosa (ATCC 27853). Briefly: microbe, parasite or virus in culture. Particulars: Pseudomonas aeruginosa, ATCC27853, 18 h. The procedure:
(§1) The MIC of PN159 on the 6 sensitive and resistant ESKAPE pathogenic strains was determined in cation-adjusted Muller–Hinton broth. […] Minimum inhibitory concentrations (MICs) were determined by using a standard serial broth dilution technique. Briefly, 11-step serial dilutions were prepared in 96-well microtiter plates with three biological replicates per strain. Pathogens were inoculated into each well at a density of 5×10^5 bacteria/mL, and the plates were incubated at 37 °C. Plates were shaken at 300 rpm during incubation for 18 h. Cell growth was monitored by measuring the optical density (OD600 value, Synergy 2 microplate reader BioTek Instruments Inc, Winooski, VT, USA). […] As reference compounds we tested the antimicrobial activity of three bactericidal drugs with different modes of action.

In series [2] the test system is Enterobacter cloacae spp. cloacae (ATCC 13047). Put plainly: microbe, parasite or virus in culture. Particulars: Enterobacter cloacae, ATCC13047, 18 h. As for the experimental part: as §1
Series [3] concerns Staphylococcus aureus (ATCC 29213). Briefly: MIC, serial broth dilution. It counts as cell-based. Particulars: ATCC29213, Muller–Hinton broth, 18 h. As for the experimental part: as §1
On the technique in general: In broth dilution the organism is exposed to a series of concentrations in liquid medium.

Series [4] concerns Klebsiella pneumoniae (ATCC 10031). Put plainly: MIC, serial broth dilution. It counts as cell-based. Particulars: ATCC10031, Muller–Hinton broth, 18 h. The procedure:
as §1

The test system of series [5] is Enterococcus faecium (ATCC 700221). Put plainly: MIC, serial broth dilution. It counts as cell-based. Particulars: ATCC700221, Brain-Heart-Infusion broth, 18 h, vancomycin resistant strain. As for the experimental part: as §1
Series [6] has as its system Acinetobacter baumannii (ATCC 17978). Put plainly: MIC, serial broth dilution. It is filed as cell-based. Particulars: ATCC17978, Muller–Hinton broth, 18 h. As for the experimental part: as §1
The test system of the next series is Caco-2 cells. Put plainly: Impedance measurement (RTCA), Caco-2 cells. It is filed as cell-based. Particulars: CPPs 100 μM, 24-h monitoring. As for the experimental part: Kinetics of epithelial cell reaction to PN159 peptide treatment was monitored by impedance measurement at 10 kHz (RTCA-SP instrument, ACEA Biosciences, San Diego, CA, USA). Impedance measurement is non-invasive, label-free and real time, and linearly correlates with adherence, growth, number and viability of cells. For background measurements 50 μL cell culture medium was added to the wells, then cells were seeded at a density of 6 × 10^3 cells/well to the coated 96-well plates with integrated gold electrodes (E-plate 96, ACEA Biosciences). Cells were cultured for 5–7 days in a CO2 incubator at 37 °C and monitored every 10 min until the end of experiments. Cells were treated with PN159 peptide solutions at 1, 3, 10, 30 and 100 μM concentrations at the beginning of the plateau phase of growth and the effects were followed for 1-h or 24 h. To measure cell recovery, peptide solutions were changed to culture medium and the impedance was monitored for one week. Culture medium was changed every 2 days. Caco-2 cells were also treated with the three selected CPPs, Pep-1, R8 and φ-peptide, at 100 μM concentrations at the beginning of the plateau phase of cell growth for 24-h. Triton X-100 detergent (1 mg/mL) was used as a reference compound to induce cell death. Cell index was defined as Rn-Rb at each time point of measurement, where Rn is the cell-electrode impedance of the well when it contains cells and Rb is the background impedance of the well with the medium alone.

Another series can be described thus: in vitro. Particulars: human, Caco-2, Papp A-B. As for the experimental part:
(§2) In the permeability experiments inserts with Caco-2 cell layers grown for 3 weeks were transferred to 12-well plates containing 1.5 mL Ringer–Hepes buffer in the lower (basal or acceptor) compartments. In the upper or apical compartments culture medium was replaced by 0.5 mL buffer containing peptide solutions: PN159 peptide at 1, 3, 10 and 30 μM concentrations and CPPs at 100 μM concentration. […] The incubation with permeability markers in the presence of PN159 peptide lasted for 30 min. In case of CPPs the incubation time with fluorescein was 1-h. Samples were collected from both compartments and the concentrations of the marker molecules were determined by a fluorescence multi-well plate reader (Fluostar Optima; excitation wavelength: 485 nm, emission wavelength: 535 nm in the case of fluorescein and excitation wavelength: 584 nm, emission wavelength: 680 nm in the case of Evans-blue labeled albumin). Fluorescein isothiocyanate (FITC)-labelled dextran marker molecules (Table 1) were used at 1 mM concentrations, and fluorescence intensities of collected samples were measured using a Fluorolog FL3-22 (Horiba Jobin Yvon, Paris, France) spectrofluorometer using 492 nm excitation wavelength, 515 nm emission wavelength, and 0.5 s integration time. Drugs were used at 10 μM concentrations and samples were measured by HPLC as described below. The apparent permeability coefficients (Papp) were calculated as described previously. Briefly, cleared volume was calculated from the concentration difference of the tracer in the basal compartments (Δ[C]B) after 30 min and apical compartments at 0 h ([C]A), the volume of the basal compartment (VB; 1.5 mL) and the surface area available for permeability (A; 1.1 cm^2).
(§3) Analytical measurements were performed on a Merck-Hitachi LaChrom HPLC system equipped with an ultraviolet (UV) and fluorescence detector (Merck, Darmstadt, Germany). All reagents used were of analytical reagent grade. […] In both cases 10μL sample was injected into the chromatographic system.
(§4) The chromatographic column was maintained at 40 °C and the 5 μL sample was injected onto the column.
(§5) The column temperature was maintained at 40 °C and a 20 μL sample was injected onto the chromatographic system. […] UV detection was set at 228 nm.

The subject of the next series is EpiAirway model. Particulars: airway epithelial tissue model, by PN159; cited from earlier work.
A further series relates to Caco-2 cell layers. Briefly: Penetration of marker and drug molecules across Caco-2 cell layers (Papp A-B). Particulars: CPPs 100 μM, 1-h treatment. As for the experimental part: as §2, §3, §4, §5
The next series relates to Klebsiella pneumoniae. Further details: method as in PMID 27617798. Particulars: cited from earlier work.

A value given as a limit tells only on which side of the number the result lay.

As to `CO[C@@]1(NC(=O)Cc2cccs2)C(=O)N2C(C(=O)O)=C(COC(N)=O)CS[C@@H]21` [Cefoxitin, cefoxitin], the MIC is above 223 µM in series [1]; above 223 µM in [2]; 6.9 µM in series [3]; 3.5 µM in [4]; above 223 µM in [5]; 223 µM in [6].
Take `CNC(C)C1CCC(N)C(OC2C(N)CC(N)C(OC3OCC(C)(O)C(NC)C3O)C2O)O1` (stereo not drawn) [Gentamicin, gentamicin]: the MIC was 2.3 µM in [1]; 1.1 µM in [2]; 1.1 µM in [3]; 0.6 µM in [4]; 0.6 µM in series [6].
`N=C(N)NCCC[C@H](NC(=O)[C@H](CCCNC(=N)N)NC(=O)[C@H](CCCNC(=N)N)NC(=O)[C@H](CCCNC(=N)N)NC(=O)[C@H](CCCNC(=N)N)NC(=O)[C@H](CCCNC(=N)N)NC(=O)[C@H](CCCNC(=N)N)NC(=O)[C@@H](N)CCCNC(=N)N)C(N)=O` [R8]: the “Cell impedance (normalized cell index)” value in the series with Caco-2 cells was “decreased the cell impedance”.
With `CN/C(=N/CCSCc1nc[nH]c1C)NC#N` [cimetidine], the apparent permeability from apical to basolateral (Papp A→B) – broadly, how fast a substance crosses the layer from the apical side – at 30 min, 10 μM turned out to be 34.5 ± 4.5 ×10⁻⁶ cm/s in “in vitro” (PN159 treated) and 0.9 ± 0.2 ×10⁻⁶ cm/s in the series “in vitro” (control).
With `COc1ccc2c3c1O[C@H]1C[C@@H](O)C=C[C@@]31CCN(C)C2` [galantamine], in the series on EpiAirway model, the Increase of permeability is 2 to 3 fold.
Take “cyclo[CGGFWRRRRGE(εAca)G] (cyclo(CGGFWRRRRGE)-{εAca-Gly}) [φ-peptide]”: the “Permeability for fluorescein marker molecule” value in the series on Caco-2 cell layers is given as “elevated permeability”. For the same compound, the “Cell impedance (normalized cell index)” value in the series on Caco-2 cells is reported as “decreased the cell impedance”.
On to melittin, for which, in the series with Klebsiella pneumoniae, the “Concentration needed for inhibition of growth” value was “more than 100 µM”.
